Holding throughout (assay): GFP reporter induction, plate reader
Holding throughout (assay type): cell-based

One test deals with T1, LasR (Pseudomonas aeruginosa, UniProt P25084).
T1 construct: constitutively expressed from Receiver plasmid (pSB1A3) in E. coli BL21 with hybrid pLas promoter-GFP reporter; acts as dimer
The following applies: E. coli BL21 Receiver cells, LB, 37 °C, half-maximal max rate of GFP/OD600.

The target of test [1] is T2, LuxR (Aliivibrio fischeri, UniProt P12746).
T2 construct: Receiver plasmid in E. coli BL21, regulator cassette upstream of pLux-GFP; same synthetic system as Canton et al. 2008; acts as dimer
T2 sequence (P12746 1-250): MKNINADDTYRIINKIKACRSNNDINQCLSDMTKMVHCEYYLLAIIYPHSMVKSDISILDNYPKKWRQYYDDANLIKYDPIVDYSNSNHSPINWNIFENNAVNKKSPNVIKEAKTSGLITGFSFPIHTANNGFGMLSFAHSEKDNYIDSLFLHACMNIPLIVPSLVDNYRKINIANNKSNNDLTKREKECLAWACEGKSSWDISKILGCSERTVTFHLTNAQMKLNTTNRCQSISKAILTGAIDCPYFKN
The following applies: E. coli BL21 Receiver cells, LB, 37 °C, half-maximal max rate of GFP/OD600.

For a further test, the target named is T3, AubR (uncultured bacterium, UniProt K0J3R4).
T3 construct: constitutively expressed from Receiver plasmid (pSB1A3) in E. coli BL21 with hybrid pAub promoter-GFP reporter; acts as dimer
T3 sequence (K0J3R4 1-267): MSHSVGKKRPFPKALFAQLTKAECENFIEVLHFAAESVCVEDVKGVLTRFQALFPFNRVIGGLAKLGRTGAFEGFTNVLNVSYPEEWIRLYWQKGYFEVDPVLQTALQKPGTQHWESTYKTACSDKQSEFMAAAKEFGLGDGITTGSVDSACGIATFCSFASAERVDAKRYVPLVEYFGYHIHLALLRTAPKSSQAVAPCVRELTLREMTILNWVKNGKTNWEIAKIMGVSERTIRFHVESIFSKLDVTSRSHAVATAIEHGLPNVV
The following applies: read-out: Kmapprox.

Test [2] concerns the target T2, LuxR. The following applies: E. coli BL21 Receiver cells, LB, 37 °C, half-maximal max rate of GFP/OD600; unreliable (little to no response without oxo group).

T1 sequence (P25084 whole entry): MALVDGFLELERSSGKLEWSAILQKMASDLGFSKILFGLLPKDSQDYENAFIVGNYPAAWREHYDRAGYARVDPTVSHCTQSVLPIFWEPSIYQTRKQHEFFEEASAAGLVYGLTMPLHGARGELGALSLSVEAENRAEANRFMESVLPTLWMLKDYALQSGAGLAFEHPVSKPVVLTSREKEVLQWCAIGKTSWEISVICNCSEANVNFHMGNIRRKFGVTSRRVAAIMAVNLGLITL

Consider `CCCCCCCCCCCC(=O)CC(=O)N[C@H]1CCOC1=O` [3-oxo-C14 HSL], for which the Kmapprox result is “~ between 1.00E-9 and 1.00E-8 M” on LasR; “~ between 1.00E-8 and 1.00E-7 M” at LuxR [1].
Turning to `CCCCCC(=O)CC(=O)N[C@H]1CCOC1=O` [3-oxo-C8], the Kmapprox result on LuxR [1] is “~ between 1.00E-7 and 1.00E-8 M”.
Turning to `CCCCCCCCCCCC(=O)N[C@H]1CCOC1=O` [C12 HSL], on AubR, the EC50 was determined as 5 nM.
With `CCCCCCCCCC(=O)CC(=O)N[C@H]1CCOC1=O` [3-oxo-C12 HSL], the EC50 at AubR came out at 100 nM.
With `CCCC(=O)N[C@H]1CCOC1=O` [C4-HSL], the Kmapprox on LuxR [2] is reported as ~ 1.0E-6–1.0E-5 M.

The record behind these values is PMC6478669, “Engineered Orthogonal Quorum Sensing Systems for Synthetic Gene Regulation in Escherichia coli” (Frontiers in Bioengineering and Biotechnology, 2019).
